# Reference: ChEMBL document CHEMBL1201862, “PubChem BioAssay data set” (2004)
# Activity calls are given as the source filed them.
# Assays:
# [1] = molecular target: Peroxisome proliferator-activated receptor gamma/Nuclear receptor coactivator 2 (Homo sapiens, UniProt P37231); format: functional;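 note: agonist potency for raising coactivator recruitment to the receptor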
# [2] = molecular target: Peroxisome proliferator-activated receptor gamma/Nuclear receptor coactivator 1 (Homo sapiens, UniProt P37231); format: functional;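 note: agonist potency as compounds enhance coactivator SRC-1 recruitment to PPARgamma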
# Chain of Peroxisome proliferator-activated receptor gamma/Nuclear receptor coactivator 1 (P37231 whole entry): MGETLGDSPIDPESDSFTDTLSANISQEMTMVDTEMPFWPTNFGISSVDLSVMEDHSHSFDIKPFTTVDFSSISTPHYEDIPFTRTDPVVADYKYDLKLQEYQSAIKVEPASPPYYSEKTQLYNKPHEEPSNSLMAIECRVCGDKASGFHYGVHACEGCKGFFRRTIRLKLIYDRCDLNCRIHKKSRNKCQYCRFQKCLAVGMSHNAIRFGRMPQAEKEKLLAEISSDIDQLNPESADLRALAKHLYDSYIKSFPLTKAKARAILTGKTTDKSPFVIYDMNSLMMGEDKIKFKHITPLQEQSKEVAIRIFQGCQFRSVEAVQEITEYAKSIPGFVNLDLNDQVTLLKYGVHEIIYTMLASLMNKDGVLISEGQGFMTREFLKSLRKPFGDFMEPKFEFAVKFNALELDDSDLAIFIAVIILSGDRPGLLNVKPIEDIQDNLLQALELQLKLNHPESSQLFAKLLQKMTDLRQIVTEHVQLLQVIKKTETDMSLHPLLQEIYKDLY
# Chain of Peroxisome proliferator-activated receptor gamma/Nuclear receptor coactivator 1 (Q15788 whole entry, further chain): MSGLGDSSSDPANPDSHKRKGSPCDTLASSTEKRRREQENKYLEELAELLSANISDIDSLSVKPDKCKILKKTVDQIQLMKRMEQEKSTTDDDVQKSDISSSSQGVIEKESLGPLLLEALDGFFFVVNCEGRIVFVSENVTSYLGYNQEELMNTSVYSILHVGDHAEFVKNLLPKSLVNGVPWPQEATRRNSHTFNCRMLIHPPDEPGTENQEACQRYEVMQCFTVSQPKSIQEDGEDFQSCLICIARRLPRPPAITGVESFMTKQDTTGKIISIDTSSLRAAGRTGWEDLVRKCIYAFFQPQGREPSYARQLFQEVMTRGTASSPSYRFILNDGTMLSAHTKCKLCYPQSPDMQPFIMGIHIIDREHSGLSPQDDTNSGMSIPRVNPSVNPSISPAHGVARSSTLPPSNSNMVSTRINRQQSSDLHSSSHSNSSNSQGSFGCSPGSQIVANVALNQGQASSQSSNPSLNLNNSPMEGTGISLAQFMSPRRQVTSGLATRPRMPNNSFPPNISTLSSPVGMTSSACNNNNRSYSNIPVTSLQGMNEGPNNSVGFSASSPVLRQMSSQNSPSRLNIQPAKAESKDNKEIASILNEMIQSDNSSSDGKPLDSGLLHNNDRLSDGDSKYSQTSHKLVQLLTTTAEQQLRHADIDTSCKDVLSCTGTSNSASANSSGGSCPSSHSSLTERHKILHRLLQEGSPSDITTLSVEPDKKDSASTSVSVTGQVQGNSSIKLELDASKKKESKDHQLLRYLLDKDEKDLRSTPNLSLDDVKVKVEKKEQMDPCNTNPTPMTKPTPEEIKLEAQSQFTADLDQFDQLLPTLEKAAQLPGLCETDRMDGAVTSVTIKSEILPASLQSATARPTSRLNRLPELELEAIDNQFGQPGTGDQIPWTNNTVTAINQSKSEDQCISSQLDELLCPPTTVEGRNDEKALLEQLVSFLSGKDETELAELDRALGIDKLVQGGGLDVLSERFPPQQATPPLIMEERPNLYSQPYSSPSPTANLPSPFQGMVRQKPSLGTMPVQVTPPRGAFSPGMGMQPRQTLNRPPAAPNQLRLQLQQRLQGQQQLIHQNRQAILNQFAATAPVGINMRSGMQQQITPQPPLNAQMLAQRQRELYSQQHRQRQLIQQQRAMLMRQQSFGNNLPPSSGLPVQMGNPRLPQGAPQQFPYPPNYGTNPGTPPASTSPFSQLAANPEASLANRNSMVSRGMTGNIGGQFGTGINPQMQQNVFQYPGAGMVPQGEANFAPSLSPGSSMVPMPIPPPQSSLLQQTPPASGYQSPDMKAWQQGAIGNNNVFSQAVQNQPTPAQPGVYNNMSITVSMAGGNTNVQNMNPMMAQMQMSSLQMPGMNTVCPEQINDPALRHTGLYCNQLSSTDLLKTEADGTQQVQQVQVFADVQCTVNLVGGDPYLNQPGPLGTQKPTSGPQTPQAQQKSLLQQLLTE
# [3] = molecular target: Peroxisome proliferator-activated receptor gamma/Nuclear receptor coactivator 3 (Homo sapiens, UniProt P37231); format: functional;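 note: agonist potency for raising coactivator recruitment to the receptor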
# [4] = molecular target: Eukaryotic translation initiation factor 4H (Homo sapiens, UniProt Q15056); test: eIF4H binding inhibition – biochemical, uHTS, fluorescence polarization, translation initiation inhibitor project, primary screen (AID 2012)
# [5] = molecular target: Polyadenylate-binding protein 1 (Homo sapiens, UniProt P11940); test: blockers of PABP interaction with poly(A) – biochemical, fluorescence polarization, […] (AID 2014)
# Estrogen receptor = molecular target: T1, Estrogen receptor (Homo sapiens, UniProt P03372); test: blockers of SRC-3 recruitment to ERα – biochemical, ELISA, streptavidin-HRP readout, orthogonal assay, confirmation (AID 1079)
# T1 sequence (P03372 whole entry): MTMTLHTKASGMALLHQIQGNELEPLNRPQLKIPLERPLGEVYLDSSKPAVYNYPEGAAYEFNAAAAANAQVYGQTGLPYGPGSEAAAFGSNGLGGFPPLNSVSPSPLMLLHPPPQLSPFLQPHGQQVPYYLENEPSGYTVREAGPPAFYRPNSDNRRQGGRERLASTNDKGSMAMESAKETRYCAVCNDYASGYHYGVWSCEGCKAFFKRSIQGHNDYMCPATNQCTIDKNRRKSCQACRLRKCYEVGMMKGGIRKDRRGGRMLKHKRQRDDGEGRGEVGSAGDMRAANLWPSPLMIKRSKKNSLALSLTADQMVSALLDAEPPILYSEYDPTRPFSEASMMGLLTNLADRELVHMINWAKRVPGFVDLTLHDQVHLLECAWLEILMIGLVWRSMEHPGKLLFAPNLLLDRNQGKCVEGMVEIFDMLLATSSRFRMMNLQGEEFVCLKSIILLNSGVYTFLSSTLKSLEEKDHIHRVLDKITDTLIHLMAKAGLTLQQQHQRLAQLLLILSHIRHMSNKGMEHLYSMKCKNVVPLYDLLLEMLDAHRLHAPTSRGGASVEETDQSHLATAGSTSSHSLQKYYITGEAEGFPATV
# [6] = antiviral protection against BTV-induced cell death – arbovirus, BSR cells, confirmation (AID 1250); format: functional;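 note: protection from viral cytopathic effect measured as cell viability by ATP luminescence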
# [7] = Trypanosoma cruzi growth suppression in host cells – NIH3T3 host cells, beta-gal luminescence, confirmation (AID 2044); format: functional, cell-based;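 note: intracellular parasites grown in NIH/3T3 mouse fibroblasts as host cells; luminescent beta-galactosidase reporter signal from transgenic T. cruzi replicating inside host cells; inhibitors lower the luminescence signal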
# [8] = NIH3T3 cell viability loss – ATP luminescence, mouse fibroblasts, counter-screen, dose response (AID 2010); format: functional, cell-based;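 note: cells exposed to compound for about 90 hours before reading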
# [9] = molecular target: T2, Sphingosine 1-phosphate receptor 4 (Homo sapiens, UniProt O95977); test: Fluorescence dose response cell-based high throughput screening assay for antagonists of the Sphingosine 1-Phosphate Receptor 4 (S1P4). [Related pubchem assays: 1524 (Confirmation in triplicates.), 1510 (Primary screen.)]; format: functional
# T2 sequence (O95977 whole entry): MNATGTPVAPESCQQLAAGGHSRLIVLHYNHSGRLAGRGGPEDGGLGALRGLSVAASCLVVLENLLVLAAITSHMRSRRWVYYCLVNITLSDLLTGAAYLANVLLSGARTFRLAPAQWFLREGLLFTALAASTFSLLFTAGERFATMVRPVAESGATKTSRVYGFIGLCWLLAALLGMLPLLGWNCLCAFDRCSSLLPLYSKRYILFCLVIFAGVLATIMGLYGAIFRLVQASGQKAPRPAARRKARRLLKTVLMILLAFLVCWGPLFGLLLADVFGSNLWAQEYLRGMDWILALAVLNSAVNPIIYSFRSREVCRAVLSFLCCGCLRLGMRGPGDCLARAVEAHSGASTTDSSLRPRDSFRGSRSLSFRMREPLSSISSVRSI
# [10] = molecular target: Sphingosine 1-phosphate receptor 1 (Homo sapiens, UniProt P21453); format: functional;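 note: Tango beta-arrestin reporter U2OS cells stimulated with S1P near its EC80; inhibitor potency meaning antagonism of receptor activation by the natural agonist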
# [11] = molecular target: T3, Microphthalmia-associated transcription factor (Homo sapiens, UniProt O75030); test: reducers of TRPM1 reporter luminescence, concentration series – cell-based, SK-MEL-5, cherry-picked, set 3, MITF inhibitor project, dose response (AID 493073); format: functional;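 note: SK-MEL-5 melanoma cells with luciferase driven by the MITF target TRPM1 promoter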
# T3 sequence (O75030 whole entry): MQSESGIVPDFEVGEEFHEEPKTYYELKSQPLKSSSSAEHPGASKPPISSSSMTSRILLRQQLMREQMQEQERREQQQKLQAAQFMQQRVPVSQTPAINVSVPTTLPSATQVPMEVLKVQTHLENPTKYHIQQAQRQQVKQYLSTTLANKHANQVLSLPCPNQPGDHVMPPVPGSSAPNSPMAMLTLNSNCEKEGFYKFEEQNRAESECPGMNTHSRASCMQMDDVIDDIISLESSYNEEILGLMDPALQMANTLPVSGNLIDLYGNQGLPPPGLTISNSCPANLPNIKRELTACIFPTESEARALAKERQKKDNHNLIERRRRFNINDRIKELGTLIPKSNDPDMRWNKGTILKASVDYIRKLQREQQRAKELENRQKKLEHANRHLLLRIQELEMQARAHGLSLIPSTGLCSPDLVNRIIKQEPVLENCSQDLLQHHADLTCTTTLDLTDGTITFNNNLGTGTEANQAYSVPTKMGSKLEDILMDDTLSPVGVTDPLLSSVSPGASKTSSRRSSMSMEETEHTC
# [12] = Fluorescence-based cell-based high throughput dose response assay for inhibitors of the interaction of nucleotide-binding oligomerization domain containing 2 (NOD2) and the receptor-interacting serine-threonine kinase 2 (RIPK2).; format: functional; settings: Homo sapiens
# [13] = reduced cellular PGC1a acetyl-lysine signal – cell-based, cherry-picked samples, dose response (AID 720514); format: functional;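 note: potency may reflect raised or lowered acetylation signal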
# Cytochrome P450 2D6 = Cytochrome P450 2D6 (Homo sapiens, UniProt P10635); test: qHTS Assay for Inhibitors and Substrates of Cytochrome P450 2D6. [Related pubchem assays: 410 ]; format: ADME; settings: read-out: Potency
# Chain of Cytochrome P450 2D6 (P10635 whole entry): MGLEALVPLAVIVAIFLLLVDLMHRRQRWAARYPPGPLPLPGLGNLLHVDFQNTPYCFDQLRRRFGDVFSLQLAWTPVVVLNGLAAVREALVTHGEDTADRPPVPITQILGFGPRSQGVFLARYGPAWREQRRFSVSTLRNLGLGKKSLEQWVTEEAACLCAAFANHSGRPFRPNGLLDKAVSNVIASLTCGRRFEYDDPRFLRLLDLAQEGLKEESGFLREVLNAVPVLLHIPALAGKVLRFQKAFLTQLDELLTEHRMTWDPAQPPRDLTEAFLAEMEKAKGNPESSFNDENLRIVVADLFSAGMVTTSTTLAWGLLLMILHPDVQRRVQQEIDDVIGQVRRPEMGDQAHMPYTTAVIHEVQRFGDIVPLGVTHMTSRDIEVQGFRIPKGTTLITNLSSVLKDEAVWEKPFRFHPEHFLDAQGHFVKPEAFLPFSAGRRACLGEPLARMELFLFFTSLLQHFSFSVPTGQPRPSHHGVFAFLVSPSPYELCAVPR
# Cytochrome P450 3A4 = Cytochrome P450 3A4 (Homo sapiens, UniProt P08684); settings: Potency;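 note: confirmatory qHTS run detecting inhibitors and substrates of CYP3A4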
# Chain of Cytochrome P450 3A4 (P08684 whole entry): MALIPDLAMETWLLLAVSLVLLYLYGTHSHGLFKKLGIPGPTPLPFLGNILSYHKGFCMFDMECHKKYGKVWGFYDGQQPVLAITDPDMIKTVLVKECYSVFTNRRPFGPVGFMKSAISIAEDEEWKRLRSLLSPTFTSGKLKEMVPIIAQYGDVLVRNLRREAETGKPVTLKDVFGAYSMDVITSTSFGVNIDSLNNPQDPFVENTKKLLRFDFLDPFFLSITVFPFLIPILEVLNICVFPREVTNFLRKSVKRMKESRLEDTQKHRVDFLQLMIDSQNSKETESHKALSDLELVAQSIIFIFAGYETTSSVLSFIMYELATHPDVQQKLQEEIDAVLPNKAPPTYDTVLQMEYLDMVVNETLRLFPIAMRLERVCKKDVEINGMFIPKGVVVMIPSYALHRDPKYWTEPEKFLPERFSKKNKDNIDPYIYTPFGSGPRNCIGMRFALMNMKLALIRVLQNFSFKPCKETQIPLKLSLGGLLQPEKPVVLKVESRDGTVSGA
# Cytochrome P450 2C19 = Cytochrome P450 2C19 (Homo sapiens, UniProt P33261); test: Cytochrome panel assay with activity outcomes. Panel member name: p450-cyp2c19 Compounds with AC50 equal or less than 10 uM are considered active; format: functional; settings: read-out: AC50
# Cytochrome P450 1A2 = molecular target: T4, Cytochrome P450 1A2 (Homo sapiens, UniProt P05177);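 note: PubChem cytochrome P450 panel assay, CYP1A2 panel member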
# T4 sequence (P05177 whole entry): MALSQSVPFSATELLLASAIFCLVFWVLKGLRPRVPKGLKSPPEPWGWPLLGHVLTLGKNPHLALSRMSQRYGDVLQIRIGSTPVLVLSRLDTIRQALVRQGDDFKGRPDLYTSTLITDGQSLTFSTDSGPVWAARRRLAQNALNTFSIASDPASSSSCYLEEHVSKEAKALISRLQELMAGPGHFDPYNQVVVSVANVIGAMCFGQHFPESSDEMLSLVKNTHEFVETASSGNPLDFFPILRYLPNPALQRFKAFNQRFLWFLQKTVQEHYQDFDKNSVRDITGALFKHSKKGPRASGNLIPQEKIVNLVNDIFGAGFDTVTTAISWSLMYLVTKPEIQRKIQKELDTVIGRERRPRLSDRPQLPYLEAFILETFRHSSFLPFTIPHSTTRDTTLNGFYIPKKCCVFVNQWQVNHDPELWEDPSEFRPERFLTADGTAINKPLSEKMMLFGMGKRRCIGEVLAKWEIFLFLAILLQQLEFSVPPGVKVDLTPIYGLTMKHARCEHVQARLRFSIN
# cells [14] = format: functional, cell-based
# Large T antigen = Large T antigen (Simian virus 40, UniProt P03070); format: functional, Betapolyomavirus macacae;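 note: Confirmatory-stage PubChem screen for compounds that inhibit SV40 T antigen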
# cells [15] = format: functional, cell-based; remark: listed apart in the source
# [16] = mitochondrial function rescue without frataxin homolog – Friedreich's ataxia, plus single-dose screen, dose response (AID 1465); format: functional;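 note: yeast depleted of Yfh1p frataxin homolog grown on glycerol needing respiration; WST-1 tetrazolium dye reduction as measure of cellular dehydrogenase metabolic activity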
# [17] = molecular target: T5, Mannose-6-phosphate isomerase (Homo sapiens, UniProt P34949); test: MPI inhibition at elevated mannose 6-phosphate – biochemical, fluorescence intensity, high mannose 6-phosphate, primary screen (AID 1220)
# T5 sequence (P34949 whole entry): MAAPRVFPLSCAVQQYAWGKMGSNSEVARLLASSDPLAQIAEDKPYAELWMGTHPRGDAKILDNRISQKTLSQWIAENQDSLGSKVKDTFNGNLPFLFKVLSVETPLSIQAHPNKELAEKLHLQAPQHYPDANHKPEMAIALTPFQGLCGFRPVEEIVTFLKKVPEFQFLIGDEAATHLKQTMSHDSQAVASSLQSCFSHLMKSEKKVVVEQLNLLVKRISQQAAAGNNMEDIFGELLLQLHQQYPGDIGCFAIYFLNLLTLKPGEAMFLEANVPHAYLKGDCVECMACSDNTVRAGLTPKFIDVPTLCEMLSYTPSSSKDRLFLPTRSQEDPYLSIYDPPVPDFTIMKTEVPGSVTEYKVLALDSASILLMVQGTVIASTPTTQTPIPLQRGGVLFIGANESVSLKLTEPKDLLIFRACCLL
# Nonstructural protein 1 = Nonstructural protein 1 (Influenza A virus, UniProt Q194T2); format: functional, Influenza A virus (A/California/07/2009(H1N1))
# INS1 = test: INS-1E survival protection against cytokine death – cell-based, luminescence, retest, dose response (AID 449756); format: functional; settings: Rattus norvegicus;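 note: cell death triggered by IL-1 beta plus TNF-alpha plus IFN-gamma mixture; protective hits raise ATP signal compared with cytokine alone wells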
# [18] = molecular target: T6, Histone-lysine N-methyltransferase NSD2 (Homo sapiens, UniProt O96028); format: biochemical
# T6 sequence (O96028 whole entry): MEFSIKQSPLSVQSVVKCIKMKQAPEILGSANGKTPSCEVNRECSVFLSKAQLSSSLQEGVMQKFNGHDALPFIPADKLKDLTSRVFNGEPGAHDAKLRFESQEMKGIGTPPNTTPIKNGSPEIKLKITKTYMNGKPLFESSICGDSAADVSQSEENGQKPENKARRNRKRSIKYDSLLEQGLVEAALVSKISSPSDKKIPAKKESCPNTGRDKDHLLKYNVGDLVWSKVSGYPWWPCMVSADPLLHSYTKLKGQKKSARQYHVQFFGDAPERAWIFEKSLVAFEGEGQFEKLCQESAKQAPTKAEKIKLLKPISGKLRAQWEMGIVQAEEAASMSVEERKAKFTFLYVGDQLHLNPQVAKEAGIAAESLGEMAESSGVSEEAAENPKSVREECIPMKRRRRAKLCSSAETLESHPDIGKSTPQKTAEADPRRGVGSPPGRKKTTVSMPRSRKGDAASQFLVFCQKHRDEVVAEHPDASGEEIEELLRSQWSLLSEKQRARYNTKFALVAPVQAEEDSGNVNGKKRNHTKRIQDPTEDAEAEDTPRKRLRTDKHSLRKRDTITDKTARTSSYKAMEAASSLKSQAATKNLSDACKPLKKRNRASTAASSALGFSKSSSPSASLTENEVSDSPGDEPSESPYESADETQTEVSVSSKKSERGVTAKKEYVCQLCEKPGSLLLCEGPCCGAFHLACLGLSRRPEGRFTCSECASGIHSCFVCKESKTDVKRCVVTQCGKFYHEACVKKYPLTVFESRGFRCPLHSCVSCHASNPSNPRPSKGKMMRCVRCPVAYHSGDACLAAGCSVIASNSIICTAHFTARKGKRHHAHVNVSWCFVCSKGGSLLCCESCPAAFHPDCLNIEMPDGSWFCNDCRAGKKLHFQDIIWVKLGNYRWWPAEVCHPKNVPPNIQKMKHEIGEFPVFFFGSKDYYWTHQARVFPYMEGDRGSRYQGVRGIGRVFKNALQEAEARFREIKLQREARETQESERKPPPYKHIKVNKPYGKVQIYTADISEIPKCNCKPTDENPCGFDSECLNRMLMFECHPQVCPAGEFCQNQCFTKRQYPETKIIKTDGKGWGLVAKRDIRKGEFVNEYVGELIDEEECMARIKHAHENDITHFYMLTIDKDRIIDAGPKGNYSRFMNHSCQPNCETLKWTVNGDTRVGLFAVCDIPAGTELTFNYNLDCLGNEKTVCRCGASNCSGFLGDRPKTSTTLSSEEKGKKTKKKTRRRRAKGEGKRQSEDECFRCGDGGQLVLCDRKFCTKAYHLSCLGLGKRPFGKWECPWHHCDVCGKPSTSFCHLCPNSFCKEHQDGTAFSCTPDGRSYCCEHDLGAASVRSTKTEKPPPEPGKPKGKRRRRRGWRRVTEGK
# Chain of Peroxisome proliferator-activated receptor gamma/Nuclear receptor coactivator 2 (P37231 whole entry): as the sequence (P37231 whole entry) above
# Chain of Peroxisome proliferator-activated receptor gamma/Nuclear receptor coactivator 2 (Q15596 whole entry, further chain): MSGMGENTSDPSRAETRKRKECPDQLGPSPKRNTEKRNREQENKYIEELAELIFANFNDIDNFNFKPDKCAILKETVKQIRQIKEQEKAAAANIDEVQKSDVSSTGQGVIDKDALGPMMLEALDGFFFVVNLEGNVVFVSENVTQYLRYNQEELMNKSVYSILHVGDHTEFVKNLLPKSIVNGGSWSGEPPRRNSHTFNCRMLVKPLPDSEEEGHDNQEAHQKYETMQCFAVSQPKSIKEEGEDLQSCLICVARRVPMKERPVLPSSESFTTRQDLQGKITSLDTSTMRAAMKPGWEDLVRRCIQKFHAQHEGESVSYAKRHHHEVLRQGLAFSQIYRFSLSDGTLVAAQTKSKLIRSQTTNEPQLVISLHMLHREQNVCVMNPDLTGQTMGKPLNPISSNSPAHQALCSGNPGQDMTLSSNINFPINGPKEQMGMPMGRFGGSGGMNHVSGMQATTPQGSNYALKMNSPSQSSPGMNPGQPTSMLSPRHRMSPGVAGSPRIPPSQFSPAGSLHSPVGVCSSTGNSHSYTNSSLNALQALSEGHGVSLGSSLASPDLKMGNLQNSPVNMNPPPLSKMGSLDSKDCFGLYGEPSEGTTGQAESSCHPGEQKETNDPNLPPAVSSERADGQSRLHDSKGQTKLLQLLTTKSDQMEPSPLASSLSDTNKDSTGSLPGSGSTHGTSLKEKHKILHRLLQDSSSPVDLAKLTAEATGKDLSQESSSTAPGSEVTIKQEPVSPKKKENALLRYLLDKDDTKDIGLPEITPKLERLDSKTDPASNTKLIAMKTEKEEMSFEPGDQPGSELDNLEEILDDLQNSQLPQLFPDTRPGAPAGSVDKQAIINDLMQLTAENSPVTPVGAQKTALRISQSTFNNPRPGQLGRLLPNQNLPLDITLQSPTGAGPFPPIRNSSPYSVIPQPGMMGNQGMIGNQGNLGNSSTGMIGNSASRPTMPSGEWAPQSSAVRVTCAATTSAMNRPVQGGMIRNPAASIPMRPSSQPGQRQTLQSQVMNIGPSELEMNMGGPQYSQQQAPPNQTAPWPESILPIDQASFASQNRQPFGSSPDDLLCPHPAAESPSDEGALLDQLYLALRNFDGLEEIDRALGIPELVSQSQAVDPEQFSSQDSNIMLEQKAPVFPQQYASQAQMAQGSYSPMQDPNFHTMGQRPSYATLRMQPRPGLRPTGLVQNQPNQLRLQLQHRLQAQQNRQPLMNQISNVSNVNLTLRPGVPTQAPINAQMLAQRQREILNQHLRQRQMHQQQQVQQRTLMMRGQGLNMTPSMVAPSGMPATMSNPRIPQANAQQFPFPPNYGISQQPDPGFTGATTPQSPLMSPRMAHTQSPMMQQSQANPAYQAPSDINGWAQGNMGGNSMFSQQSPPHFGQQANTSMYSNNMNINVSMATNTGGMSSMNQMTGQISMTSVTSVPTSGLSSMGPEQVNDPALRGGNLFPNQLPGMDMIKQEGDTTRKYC
smiles,measurement,setting,value
CCCNC(=O)C(CC)NS(=O)(=O)c1ccc(OC)cc1 (configuration not stated),EC50,[1],> 79.4 µM (not active)
same,EC50,[2],> 79.4 µM (not active)
same,EC50,[3],> 79.4 µM (not active)
CCC(c1nnc(SCCNCCO)n1CCN1CCOCC1)N(C)C (configuration not stated),IC50,[4],> 100 µM (inactive)
same,IC50,[5],7.33 µM (active)
O=C(CCCCCn1c(=S)[nH]c2ccccc2c1=O)N1CCC(O)(c2ccc(Cl)cc2)CC1,IC50,Estrogen receptor,0.08 µM (not active)
Cc1ccc2nc(NC(=O)C3=NN(c4ccccc4)C(=O)CC3)sc2c1,IC50,[6],29 µM (active)
O=C(CCCn1c(=S)[nH]c2ccccc2c1=O)N1CCN(c2cccc3ccccc23)CC1,IC50,Estrogen receptor,0.07 µM (not active)
O=C(Cn1ncc(Cl)c(Cl)c1=O)c1ccc(Cl)cc1,EC50,[7],2.11 µM (active)
same,EC50,[8],2.41 µM (active)
same,IC50,[9],2.15 µM (active)
same,IC50,[10],7.28 µM (active)
same,AC50,[11],8.81 µM (active)
same,IC50,[12],1.84 µM (active)
same,AC50,[13],3.39 µM (active)
CCCCCCC1=Cc2cc(OC)c(OC)cc2C(C(C(C)=O)C(=O)OCC)O1 (configuration not stated),AC50,Cytochrome P450 2D6,6.31 µM (inconclusive)
same,AC50,Cytochrome P450 3A4,3.16 µM (inconclusive)
CCOC(=O)CC(=O)CSc1nc(-c2ccccc2)cc(-c2ccc(Cl)cc2)c1C#N,EC50,[1],14.8 µM (not active)
same,EC50,[2],16.4 µM (not active)
same,EC50,[3],18.7 µM (not active)
same,AC50,Cytochrome P450 2C19,7.08 µM (inconclusive)
same,AC50,Cytochrome P450 1A2,2.24 µM (inconclusive)
Oc1cccc(/C=N/NC(=S)Nc2cccnc2)c1O,EC50,cells [14],13.6 µM (active)
same,IC50,Large T antigen,15 µM (active)
same,EC50,cells [15],83 µM (active)
same,EC50,[16],> 100 µM (active)
same,IC50,[17],16.1 µM (active)
same,IC50,Nonstructural protein 1,1.83 µM (active)
same,AC50,INS1,0.976 µM (active)
same,AC50,[18],12.4 µM (active)
O=c1c(O)c(-c2ccc(O)cc2)oc2cc(O)ccc12 [RESOKAEMPFEROL],AC50,Cytochrome P450 2D6,20 µM (inconclusive)
same,AC50,Cytochrome P450 3A4,39.8 µM (inconclusive)
